Reference: patent US8728771B2, “L-succinylaminoacylase and process for producing L-amino acid using it” (Toyo Boseki Kabushiki Kaisha, priority 2008, dated 2014)

B1: L-succinylaminoacylase of the present invention: protein of amino acid sequence SEQ ID No: 2, L-succinylaminoacylase of IFO 12983 strain of Geobacillus stearothermophilus (protein, listed as Geobacillus stearothermophilus)
chain: MKEIIQQMKAELWSIFDYLHRHPEISWEEWGTTEFVRRELEREGYRVWTFADCPGVVAEIGDGPFMVGVRSDMDALWQEVNGVWQPNHACGHDAHMTIVLGVAKLLRRIGYEPPGTLRFLFQPAEEKGTGALKLIEKGAVDGMSFLYGVHLRPVQEVKSGYATPAIIHGAAQCIEGRIRGMAAHAARPHLGVNVIEVGSAIVQELGKIHVDPQVPATIKMTRFHAGEKDVNTIPDYAEFSLDLRAQTNEAMEQLVERLRRVVNGVAAIYGAEIELDERTRIVAANPDLDAKRLMEEAIIAVLGEEKCIPPVITSGGEDFHFYAFKKPELKTTMLGLGCDLRPGLHHPQMTFQRDDLLSGIEILARTVINTFALQGEKERVSIAANH

Legend:
[1] = test system: L-succinylaminoacylase of the present invention; assay: Hydrolysis of N-succinyl-DL-amino acid to L-amino acid by L-succinylaminoacylase, HPLC (Examples 2 and 3); format: biochemical, Geobacillus stearothermophilus IFO 12983 strain; settings: for Yield (%) of corresponding L-amino acid: 10% by weight substrate, 96 hours, same condition as in Example 2 (57° C., 0.5 mM CoCl2)
Experimental: The N-succinyl-DL-tert-leucine synthesized in the above (1) was dissolved in distilled water and its pH was adjusted using 0.1N sodium hydroxide (manufactured by Nacalai tesque) to prepare a 5% by weight solution of N-succinyl-DL-tert-leucine (pH 7 to 8). […] This reaction solution was kept at 57° C. for 144 hours with stirring.
Column: Inertsil ODS-2 (particle size: 5 μm; 4.6 mm inner diameter×250 mm length) manufactured by GL Science
Eluant: aqueous solution of phosphate (pH 2.3)/acetonitrile for HPLC=80:20
Column temperature: 40° C.
The reaction was carried out for 96 hours under the same condition as in Example 2 using N-succinyl-DL-valine, N-succinyl-DL-phenylalanine, N-succinyl-DL-tryptophan, N-succinyl-DL-asparagine, N-succinyl-DL-serine, N-succinyl-DL-tyrosine, or N-succinyl-DL-cyclohexylglycine synthesized in the above (2) and (3) instead of N-succinyl-DL-tert-leucine. However, concentration of each N-succinyl-DL-amino acid was made 10% by weight. After completion of the reaction, a sample was collected therefrom and subjected an HPLC measurement under the same condition as in Example 2 to calculate the conversion rate into each L-amino acid corresponding to N-succinyl-DL-valine, N-succinyl-DL-phenylalanine, N-succinyl-DL-tryptophan, N-succinyl-DL-asparagine, N-succinyl-DL-serine, N-succinyl-DL-tyrosine, and N-succinyl-DL-cyclohexylglycine.

[2] = test system: L-succinylaminoacylase of the present invention; assay: Comparative experiment for enzymatic activity (ii), enzyme of the present invention (Example 7); format: biochemical, Geobacillus stearothermophilus IFO 12983 strain; settings: 4 hours, 50° C., pH 7.5, cobalt acetate
Experimental: (§1) Each of N-succinyl-DL-4-bromophenylalanine, N-succinyl-DL-biphenylalanine, N-succinyl-DL-3,4-dichlorophenylalanine, N-succinyl-DL-cyclohexylglycine, and N-succinyl-DL-tert-leucine synthesized in the above (3) was used to prepare an amino acid solution of 10% by weight (pH 7.5). Mixed solution of 0.25 ml of 0.1M HEPES-NaOH buffer (pH 7.5), 0.025 ml of 0.1M cobalt acetate solution, 0.5 ml of each amino acid solution and 4.2 ml of distilled water was prepared. To the resulting solution was added 0.025 ml of a solution of the L-succinylaminoacylase disclosed in Example 1 of Patent Document 3 made into 5 mg/ml or a solution of the L-succinylaminoacylase of the present invention prepared in the above Example 1 made into 5 mg/ml. The resulting reaction solution was subjected to a reaction for 4 hours with stirring at 50° C. After completion of the reaction, a sample was collected therefrom and subjected to an HPLC measurement under the same condition as in Example 2 to calculate the conversion rate into each of the L-amino acids corresponding to N-succinyl-DL-4-bromophenylalanine, N-succinyl-DL-biphenylalanine, N-succinyl-DL-3,4-dichlorophenylalanine, N-succinyl-DL-cyclohexylglycine, and N-succinyl-DL-tert-leucine.

[3] = test system: L-succinylaminoacylase disclosed in Patent Document 3; assay: Comparative experiment for enzymatic activity (ii), enzyme of Patent Document 3 (Example 7); format: biochemical, Geobacillus stearothermophilus NCA 1503 strain; settings: 4 hours, 50° C., pH 7.5, cobalt acetate
Experimental: as §1

[4] = test system: L-succinylaminoacylase of the present invention and N-succinylamino acid racemase; assay: Synthesis of L-tert-leucine using L-succinylaminoacylase and N-succinylamino acid racemase (i) (Example 4); format: biochemical, Geobacillus stearothermophilus; settings: 1% by weight substrate, racemase prepared in (1) added, 90 hours; 100% is the theoretically highest yield
Experimental: The reaction was carried out for 90 hours under the same condition as in Example 2 except that the concentration of the N-succinyl-DL-tert-leucine solution was made 1% by weight and that 0.1 ml of a 9.6 mg/ml solution of N-succinylamino acid racemase prepared in the above (1) was previously added to the reaction solution. After completion of the reaction, the sample was collected therefrom and subjected to an HPLC measurement under the same condition as in Example 2 to calculate the yield of L-tert-leucine whereupon the yield was not lower than 90% and the value being nearly equal to 100% which is the theoretically highest yield was achieved.

[5] = test system: L-succinylaminoacylase of the present invention and N-succinylamino acid racemase; assay: Synthesis of L-tert-leucine using L-succinylaminoacylase and N-succinylamino acid racemase (ii) (Example 5); format: biochemical; settings: 1% by weight substrate, racemase prepared in (2) added, up to 120 hours
Experimental: The same reaction as in Example 4 was carried out for 120 hours except that the product prepared in the above (2) was used as an N-succinylamino acid racemase. The sample was collected after 24 hours, 48 hours and 120 hours from the start of the reaction and subjected to an HPLC measurement under the same condition as in Example 2 to confirm the synthesis of L-tert-leucine from N-succinyl-DL-tert-leucine.

[6] = test system: L-succinylaminoacylase of the present invention; assay: Comparative experiment for enzymatic activity (i), with racemase (Example 6); format: biochemical, Geobacillus stearothermophilus IFO 12983 strain; settings: 5% by weight substrate, racemase (2), 50° C., up to 144 hours, FIG. 3
Experimental: The N-succinyl-DL-tert-leucine synthesized in the above (1) was dissolved in distilled water and its pH was adjusted using 0.1N sodium hydroxide (manufactured by Nacalai tesque) to prepare a 5% by weight solution of N-succinyl-DL-tert-leucine (pH 7 to 8). To 10 ml of this solution were added 0.5 mM (final concentration) of CoCl2 and 0.1 ml of the N-succinylamino acid racemase in the above (2) prepared in 10 mg/ml. To the resulting solution was added 0.1 ml of the L-succinylaminoacylase disclosed in Example 1 of Patent Document 3 made into 2.5 mg/ml or a solution of the L-succinylaminoacylase of the present invention prepared in the above Example 1 and made into 2.5 mg/ml. The prepared reaction solution was kept at 50° C. for 144 hours with stirring. The sample was collected after 24 hours, 48 hours, 72 hours and 144 hours from the start of the reaction and subjected to an HPLC measurement to confirm the peaks of succinyl-form compound and free-form compound whereby the synthesis of L-tert-leucine from N-succinyl-DL-tert-leucine was confirmed.

[7] = Metal ion dependence of L-succinylaminoacylase activity; format: biochemical
Text: Examples of the divalent or univalent metal ion include Mn^2+, Co^2+, Mg^2+, Ca^2+, Ni^2+ and K^+ and, among them, Co^2+ is particularly preferred. It has been known that, when Co^2+ is used, the activity increased to an extent of twice or more as compared with the case where Zn^2+ is used.

[8] = Physical and chemical properties of the L-succinylaminoacylase (temperature stability, optimum temperature, optimum pH); format: physicochemical
Experimental: Physical and chemical properties of the L-succinylaminoacylase of the present invention are as shown in the following (i) to (v).
(iii) Temperature stability: When it is subjected to a heating treatment for 30 minutes, it is stable at 70° C. and is inactivated at 75° C. or higher;
(iv) Optimum temperature: When it is made to react at pH 7 to 8, its action is optimum at the temperature of 55 to 60° C.; and
(v) Optimum pH: When it is made to react at 60° C. for 30 minutes, its action is optimum at pH 7.

[9] = heating treatment for 30 minutes

Molecule | Yield (%) of corresponding L-amino acid [1] | Conversion rate by L-succinylaminoacylase of the present invention (%) [2] | Conversion rate by L-succinylaminoacylase of Patent Document 3 (%) [3] | further results
O=C(O)CCC(=O)NC(CO)C(=O)O (racemic) [N-succinyl-DL-serine] | 43.4% | – | – | –
O=C(O)CCC(=O)NC(Cc1ccc(-c2ccccc2)cc1)C(=O)O (racemic) [N-succinyl-DL-biphenylalanine] | – | 74.1% | 8.8% | –
O=C(O)CCC(=O)NC(Cc1ccc(O)cc1)C(=O)O (racemic) [N-succinyl-DL-tyrosine] | 19.1% | – | – | –
O=C(O)CCC(=O)NC(Cc1ccc(Cl)c(Cl)c1)C(=O)O (racemic) [N-succinyl-DL-dichlorophenylalanine, N-succinyl-DL-3,4-dichlorophenylalanine] | – | 83.3% | 82.0% | –
O=C(O)CCC(=O)NC(C(=O)O)C1CCCCC1 (racemic) [N-succinyl-DL-cyclohexylglycine] | 49.2% | 97.3% | 53.6% | –
O=C(O)CCC(=O)NC(Cc1ccccc1)C(=O)O (racemic) [N-succinyl-DL-phenylalanine] | 37.5% | – | – | –
CC(C)(C)C(NC(=O)CCC(=O)O)C(=O)O (racemic) [N-succinyl-DL-tert-leucine] | – | 45.7% | 0.1% | Yield of L-tert-leucine [4]: ≥ 90%; Yield (conversion rate) of L-tert-leucine ([1]; 5% by weight substrate, 0.5 mM CoCl2, 57° C., pH 7 to 8, up to 144 hours, 50% is the theoretically highest yield): ~50%; Yield of L-tert-leucine [5]: ≥ 90%; Conversion rate from N-succinyl-DL-tert-leucine to L-tert-leucine compared with enzyme of Patent Document 3 [6]: significantly high conversion rate
O=C(O)CCC(=O)NC(Cc1c[nH]c2ccccc12)C(=O)O (racemic) [N-succinyl-DL-tryptophan] | 31.4% | – | – | –
O=C(O)CCC(=O)NC(Cc1ccc(Br)cc1)C(=O)O (racemic) [N-succinyl-DL-4-bromophenylalanine] | – | 97.5% | 97.1% | –
NC(=O)CC(NC(=O)CCC(=O)O)C(=O)O (racemic) [N-succinyl-DL-asparagine] | 42.5% | – | – | –
CC(C)C(NC(=O)CCC(=O)O)C(=O)O (racemic) [N-succinyl-DL-valine] | 42.4% | – | – | –
B1 | – | – | – | Increase of activity with Co^2+ as compared with Zn^2+ [7]: twice or more; Temperature stability: inactivated at [8, 9]: ≥ 75 °C; Temperature stability: stable at [8, 9]: 70 °C; Optimum pH ([8]; reaction at 60° C. for 30 minutes): 7
